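Cells were grown in 96-well plates and exposed to each compound for 48 hours at five concentrations; endpoints were interpolated linearly between bracketing concentrations, or set to the highest concentration if not reached. At the GI50, growth is halved. TGI is the concentration that stops growth completely.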
How the values were obtained:
Assay in all cases: DTP human tumour cell line panel, 48 h
[1] = tested on: KM12 colon
[2] = tested on: T-47D breast
[3] = tested on: NCI-H460 lung
[4] = tested on: ACHN renal
[5] = tested on: SK-MEL-2 melanoma
[6] = tested on: MCF7 breast
[7] = tested on: U251 CNS
[8] = tested on: HT29 colon
[9] = tested on: BT-549 breast
[10] = tested on: RPMI-8226 leukemia
[11] = tested on: K-562 leukemia
[12] = tested on: RXF 393 renal
[13] = tested on: CCRF-CEM leukemia
[14] = tested on: MOLT-4 leukemia
[15] = tested on: NCI-H226 lung
[16] = tested on: HCT-15 colon
[17] = tested on: CAKI-1 renal
[18] = tested on: UO-31 renal
[19] = tested on: PC-3 prostate
[20] = tested on: SK-MEL-28 melanoma
[21] = tested on: COLO 205 colon
[22] = tested on: M14 melanoma
[23] = tested on: NCI/ADR-RES ovarian
[24] = tested on: OVCAR-3 ovarian
[25] = tested on: MALME-3M melanoma
[26] = tested on: A549 NSCLC
[27] = tested on: SNB-19 CNS
[28] = tested on: NCI-H522 lung
[29] = tested on: MDA-MB-231 breast
[30] = tested on: HS 578T breast
[31] = tested on: OVCAR-8 ovarian
[32] = tested on: EKVX NSCLC
[33] = tested on: HOP-62 NSCLC
[34] = tested on: HCC-2998 colon
[35] = tested on: SK-MEL-5 melanoma
[36] = tested on: HL-60(TB) leukemia
[37] = tested on: NCI-H23 lung
[38] = tested on: OVCAR-5 ovarian
[39] = tested on: SN12C renal
[40] = tested on: SK-OV-3 ovarian
[41] = tested on: SF-295 CNS
[42] = tested on: SW-620 colon
[43] = tested on: SNB-75 CNS
[44] = tested on: UACC-257 melanoma
[45] = tested on: TK-10 renal
[46] = tested on: SF-539 CNS
[47] = tested on: DU-145 prostate
[48] = tested on: SR leukemia
[49] = tested on: OVCAR-4 ovarian
[50] = tested on: SF-268 CNS
[51] = tested on: HOP-92 NSCLC
[52] = tested on: MDA-MB-435
[53] = tested on: 786-0 renal
[54] = tested on: IGROV1 ovarian
[55] = tested on: A498 renal
[56] = tested on: LOX IMVI melanoma
[57] = tested on: UACC-62 melanoma

`CCN(CC)CCCC(C)Nc1cnc(C(=O)Nc2ccc(Cl)c3cccnc23)cn1` (centres undefined) showed a GI50 [1] of 3.79 µM, a TGI [1] of 13.3 µM and a GI50 [2] of 1210 nM. For the same compound, the TGI [2] was 2970 nM, the GI50 [3] was 2640 nM and the TGI [3] was 6.8 µM. It also gave a GI50 [4] of 1730 nM, a TGI [4] of 3.31 µM and a GI50 [5] of 1950 nM. The TGI [5] was 4.34 µM, the GI50 [6] was 1680 nM and the TGI [6] was 4.39 µM. The GI50 [7] was 1930 nM, the TGI [7] was 3.83 µM and the GI50 [8] was 1330 nM. The TGI [8] was 3.26 µM, the GI50 [9] was 1590 nM and the TGI [9] was 3.08 µM. The GI50 [10] was 1740 nM, the TGI [10] was 3.92 µM and the GI50 [11] was 1050 nM. The TGI [11] was 3.71 µM, the GI50 [12] was 1640 nM and the TGI [12] was 3.36 µM. For the same compound, the GI50 [13] was 484 nM, the TGI [13] was 2270 nM and the GI50 [14] was 1330 nM. The TGI [14] was 3.3 µM, the GI50 [15] was 4.73 µM and the TGI [15] was 20.7 µM. The GI50 [16] was 2290 nM, the TGI [16] was 6.3 µM and the GI50 [17] was 1780 nM. It also gave a TGI [17] of 4.1 µM, a GI50 [18] of 1480 nM and a TGI [18] of 2900 nM. The GI50 [19] was 1320 nM, the TGI [19] was 2820 nM and the GI50 [20] was 1790 nM. The TGI [20] was 3.28 µM, the GI50 [21] was 1580 nM and the TGI [21] was 3.23 µM. For the same compound, the GI50 [22] was 1790 nM, the TGI [22] was 3.59 µM and the GI50 [23] was 2550 nM. For the same compound, the TGI [23] was 9.33 µM, the GI50 [24] was 2010 nM and the TGI [24] was 3.97 µM. It also gave a GI50 [25] of 1820 nM, a TGI [25] of 3.3 µM and a GI50 [26] of 2710 nM. The TGI [26] was 11.8 µM, the GI50 [27] was 3.37 µM and the TGI [27] was 13.9 µM. The GI50 [28] was 2070 nM, the TGI [28] was 4.34 µM and the GI50 [29] was 1680 nM. For the same compound, the TGI [29] was 3.76 µM, the GI50 [30] was 3.06 µM and the TGI [30] was 13 µM. It also gave a GI50 [31] of 3.17 µM, a TGI [31] of 10 µM and a GI50 [32] of 3.98 µM. For the same compound, the TGI [32] was 17.2 µM, the GI50 [33] was 1770 nM and the TGI [33] was 3.61 µM. It also gave a GI50 [34] of 1500 nM, a TGI [34] of 3.08 µM and a GI50 [35] of 1800 nM. The TGI [35] was 3.31 µM, the GI50 [36] was 1770 nM and the TGI [36] was 3.54 µM. For the same compound, the GI50 [37] was 5.04 µM, the TGI [37] was 19.6 µM and the GI50 [38] was 1830 nM. It also gave a TGI [38] of 3.6 µM, a GI50 [39] of 2190 nM and a TGI [39] of 5.53 µM. It also gave a GI50 [40] of 12.9 µM, a TGI [40] of 26 µM and a GI50 [41] of 2110 nM. For the same compound, the TGI [41] was 4.92 µM, the GI50 [42] was 2090 nM and the TGI [42] was 4.74 µM. It also gave a GI50 [43] of 3.18 µM, a TGI [43] of 15.1 µM and a GI50 [44] of 2910 nM. For the same compound, the TGI [44] was 7.96 µM, the GI50 [45] was 9.09 µM and the TGI [45] was 21.9 µM. For the same compound, the GI50 [46] was 1710 nM, the TGI [46] was 3.12 µM and the GI50 [47] was 4.12 µM. For the same compound, the TGI [47] was 15.8 µM, the GI50 [48] was 1180 nM and the TGI [48] was 4.12 µM. It also gave a GI50 [49] of 2420 nM, a TGI [49] of 6.99 µM and a GI50 [50] of 3.23 µM. For the same compound, the TGI [50] was 15 µM, the GI50 [51] was 1180 nM and the TGI [51] was 2820 nM. For the same compound, the GI50 [52] was 1810 nM, the TGI [52] was 3.43 µM and the GI50 [53] was 1400 nM. For the same compound, the TGI [53] was 2870 nM, the GI50 [54] was 1620 nM and the TGI [54] was 4.11 µM. It also gave a GI50 [55] of 5.48 µM, a TGI [55] of 19.5 µM and a GI50 [56] of 1780 nM. For the same compound, the TGI [56] was 3.3 µM, the GI50 [57] was 1850 nM and the TGI [57] was 3.43 µM.
